Experimental data published in patent publication USRE42930E1, “Aziridinyl-epothilone compounds” (Bristol-Myers Squibb Company, priority 2006, dated 2011).
Read-outs that look alike come from different tables or passages of the source.

How the values were obtained:
HCT116VM46 = assay: In vitro MTS cytotoxicity assay, taxane-resistant HCT116VM46 (R/S ratio); assay type: cell-based, human; settings: R/S ratio = HCT116VM46 IC50/HCT116 IC50
Description: (§1) In vitro cytotoxicity was assessed in tumor cells using a tetrazolium-based colorimetric assay which takes advantage of the metabolic conversion of MTS (3-(4,5-dimethylthiazol-2-yl)-5-(3-carboxymethoxyphenyl)-2-(4-sulphenyl)-2H-tetrazolium, inner salt) to a reduced form that absorbs light at 492 nm. Cells were seeded 24 hr prior to addition of the epothilone, epothilone analog, conjugated epothilone, or conjugated epothilone analog. Following a 72 hour incubation at 37° C. with serially diluted compound, MTS, in combination with the electron coupling agent phenazine methosulfate, was added to the cells. The incubation was continued for 3 hours, then the absorbency of the medium at 492 nm was measured with a spectrophotometer to obtain the number of surviving cells relative to control populations. The results are expressed as median cytotoxic concentrations (IC50 values).
(§2) Other epothilone analogs, e.g., aziridinyl epothilones, are known in the art (see, e.g., U.S. Pat. No. 6,399,638; Regueiro-Ren, A, et al. (2001) Org. Letters. 3:2693-96) and show potent antitumor cytotoxicity. For example, an MTS assay that compared the relative cytotoxic potency of a number of epothilone analogs against a pair of taxane-resistant cancer cell lines (HCTVM46 and […]) was conducted (see Table 1). HCTVM46 is a human colon carcinoma cell line derived from the sensitive HCT116 parent line, and is resistant to taxanes due to overexpression of the 170 kD p-glyprotein drug efflux transporter. A2780Tax is a human ovarian carcinoma cell line derived from the parent A2780 line, and is resistant to paclitaxel as a result of a mutation in the tubulin amino acid sequence that impairs the ability of paclitaxel to bind.

[1] = system: A2780 ovarian carcinoma cell line; assay: In vitro MTS proliferation/cytotoxicity assay, A2780; assay type: cell-based, human
Description: as §1, §2
(§3) As is shown in Table 1, various aziridinyl epothilone analogs (Compounds CC-EE) show potent antitumor activity against both the HCT116 colon and A2780 ovarian carcinoma cell lines, compared to other known antitumor agents, e.g., paclitaxel, compound AA, and epothilone B.

[2] = system: FRα(−) M109 murine lung carcinoma; assay: In vivo antitumor efficacy, FRα(−) M109 parent tumor model; parameters: species or system mice; settings: bolus IV; FIG. 5
Excerpt: (§4) Female CD2F1 mice (Harlan Sprague-Dawley Inc., 20-22 g) maintained in a controlled environment and provided with water and food ad libitum were used in these studies. The murine FRα(−) Madison 109 (M109) lung carcinoma (Marks et al., 1977) and the FR-expressing (FRα(+)) 98M109 variant were used to evaluate the efficacy of the epothilone, epothilone analog (e.g., epothilone derivative), folate-epothilone conjugate, or folate-epothilone analog conjugate. In addition, the human head and neck epidermoid carcinoma KB grown in nude mice was also used for this purpose. […]
(§5) Tumor response was determined by measurement of tumors with a caliper twice a week, until the tumors reached a predetermined “target” size of 1 gm. […]
(§6) Antitumor activity was evaluated at the maximum tolerated dose (MTD) which is defined as the dose level immediately […] which excessive toxicity (i.e. more than one death) occurred. When death occurred, the day of death was recorded. […]
(§7) To estimate tumor cell kill, the tumor volume doubling time (TVDT) was first calculated with the formula: TVDT=Median time (days) for control tumors to reach target size−Median time (days) for control tumors to reach half the target size And, Log cell kill=T-C÷(3.32×TVDT) Statistical evaluations of data were performed using Gehan's generalized Wilcoxon test.

A2780Tax = assay type: cell-based, human
Description: as §1, §2

[3] = system: HCT116 colon carcinoma cell line; assay: cells; assay type: cell-based, human
Description: as §1, §2, §3

folate receptor (FR) = target: T1, folate receptor (FR) (Homo sapiens, UniProt P15328); assay: Displacement of radiolabeled folic acid from FR expressed on KB tumor cells; assay type: binding; settings: compared to folic acid (RA = 1.0)
T1 construct: FR expressed on KB tumor cells grown to confluence; endogenous in cells; host or cells: KB tumor cells
Description: The binding of these folate conjugates of Compound AA to FR was determined in an assay that measures displacement of radiolabeled folic acid from FR expressed on KB tumor cells grown to confluence.

[4] = system: clonogenic KB cancer cells; assay: Clonogenic cell survival (colony formation) assay; assay type: cell-based, human
Description: Cancer cells were seeded at 3.0E+05 cells in a T75 flask with 10 ml of RPMI1640 media, free of folic acid, and containing 10% fetal bovine serum and 25 mM HEPES. Cells were grown in a 37° C. incubator containing 5% CO2 for 2 days. On day 2, supernatants were removed from the flasks, and the flasks were divided into 2 groups. One group of cells were incubated with 5 ml of media containing […] of folic acid (Sigma) for 30 minutes and the others were grown in 5 ml of media without added folic acid. Cells were then treated with 20 nM of epothilone, epothilone analog, conjugated epothilone, or conjugated epothilone analog for one hour. At the end of the incubation, the drugs were removed from the flasks and the cells were washed with PBS buffer 3×. After washing, 5 ml of complete media were added into each flask, and the cell was grown in the CO2 incubator for 23 hours. The next morning, the cells were removed from the flasks by trypsinization, cell numbers were determined, and then cells were plated in a 6 well plates. Ten days after plating, colonies were stained with crystal violet and counted. The surviving fractions were determined.
This is important because it is the aziridine epothilone analog, e.g., Compound G, that mediates the antitumor effects upon release from folic acid. […] The concentration needed to kill 90% of clonogenic KB cancer cells (IC90) was determined after a drug exposure duration of 17 hours.

[5] = system: KB nasopharyngeal epidermoid carcinoma xenografts; assay: In vivo antitumor efficacy, KB FRα(+) xenografts in nude mice; settings: KB model, FIG. 4
Excerpt: as §4, §5, §6, §7

FRα(+) 98M109 tumors = assay: In vivo antitumor efficacy, FRα(+) 98M109 tumors with folate analog competition; parameters: species or system mice; settings: folate analog at 20-fold excess of the dose of compound J; FIG. 6
Excerpt: as §4, §5, §6, §7

[6] = Homo sapiens, A2780, MTS assay, mean IC50 ± SD from four separate experiments, read-out: A2780 IC5
[7] = Homo sapiens, A2780, read-out: A2780 IC5 (nM)
[8] = Homo sapiens, HCT-116, read-out: HCT116 IC50 (nM)

T1 sequence (P15328 25-234): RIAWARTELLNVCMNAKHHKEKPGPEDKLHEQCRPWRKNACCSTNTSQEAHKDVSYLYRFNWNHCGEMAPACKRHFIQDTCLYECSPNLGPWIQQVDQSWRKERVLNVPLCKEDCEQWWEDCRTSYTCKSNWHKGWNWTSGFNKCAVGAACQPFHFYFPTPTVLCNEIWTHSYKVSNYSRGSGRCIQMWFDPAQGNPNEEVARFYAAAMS

CC(=O)O[C@H]1C(=O)[C@@]2(C)[C@H]([C@H](OC(=O)c3ccccc3)[C@]3(O)C[C@H](OC(=O)[C@H](O)[C@@H](NC(=O)c4ccccc4)c4ccccc4)C(C)=C1C3(C)C)[C@]1(OC(C)=O)CO[C@@H]1C[C@@H]2O [paclitaxel]
R/S Ratio (HCT116) (HCT116VM46): 150 | IC50 [1, 6]: 3.1 ± 1 nM

C/C(=C\c1csc(C)n1)[C@@H]1C[C@@H]2O[C@]2(C)CCC[C@H](C)[C@H](O)[C@@H](C)C(=O)C(C)(C)[C@@H](O)CC(=O)N1 [ixabepilone]
antitumor activity in FRα(−) M109 parent tumor model [2]: active at its MTD

C/C(=C\c1csc(C)n1)C1C[C@H]2[C@@H](CCCC(C)[C@H](O)[C@@H](C)C(=O)C(C)(C)[C@@H](O)CC(=O)O1)N2C (some centres unmarked) [DD]
R/S Ratio (A2780) (A2780Tax): 4.1 | R/S Ratio (HCT116) (HCT116VM46): 0.6 | IC50 [1, 7]: 0.25 ± 0.06 nM | IC50 [3, 8]: 0.37 ± 0.13 nM

C/C(=C\c1csc(CN)n1)C1C[C@@H]2O[C@]2(C)CCCC(C)[C@H](O)[C@@H](C)C(=O)C(C)(C)[C@@H](O)CC(=O)O1 (some centres unmarked) [Compound AA]
R/S Ratio (A2780) (A2780Tax): 3 | R/S Ratio (HCT116) (HCT116VM46): 14.8 | IC50 [1, 6]: 1.1 ± 0.4 nM | IC50 ([3]; Homo sapiens, HCT-116, MTS assay, mean IC50 ± SD from four separate experiments, read-out: HCT116 IC50): 1.2 ± 0.3 nM

C/C(=C\c1csc(C)n1)C1C[C@@H]2N[C@@H]2CCCC(C)[C@H](O)[C@@H](C)C(=O)C(C)(C)[C@@H](O)CC(=O)O1 (some centres unmarked) [Compound CC]
R/S Ratio (A2780) (A2780Tax): 4.7 | R/S Ratio (HCT116) (HCT116VM46): 3.1 | IC50 [1, 7]: 3.4 ± 1.5 nM | IC50 [3, 8]: 4.2 ± 2.8 nM

Nc1nc2ncc(CNc3ccc(C(=O)N[C@@H](CCC(=O)O)C(=O)O)cc3)nc2c(=O)[nH]1 [folic acid]
relative affinity (RA) for folate receptor (folate receptor (FR)): 1.0

C/C(=C\c1csc(C)n1)[C@@H]1C[C@H]2[C@@H](CCCC(C)[C@H](O)[C@@H](C)C(=O)C(C)(C)[C@@H](O)CC(=O)O1)N2CCO (relative stereo) [Compound G, [1S-[1R*,3R*(E),7R*,10S*,11R*,12R*,16S*]]-7,11-Dihydroxy-17-[2-hydroxyethyl]-8,8,10,12-tetramethyl-3-[1-methyl-2-(2-methyl-4-thiazolyl)ethenyl]-4-oxa-17-azabicyclo[14.1.0]heptadecane-5,9-dione]
fold more potent than compound AA ([4]; IC90, KB cells, 17 hours): ~4 fold | fold more potent than compound CC ([4]; IC90, KB cells, 17 hours): ~2 fold | fold more potent than ixabepilone ([4]; IC90, KB cells, 17 hours): ~6 fold | concentration needed to kill 90% of clonogenic KB cancer cells (IC90) ([4]; drug exposure duration of 17 hours, FIG. 3): 4.3 nM

C/C(=C\c1csc(C)n1)[C@@H]1C[C@@H]2O[C@]2(C)CCC[C@H](C)[C@H](O)[C@@H](C)C(=O)C(C)(C)[C@@H](O)CC(=O)O1 [Epothilone B]
R/S Ratio (A2780) (A2780Tax): 2.5 | R/S Ratio (HCT116) (HCT116VM46): 0.5 | IC50 ([1]; MTS assay, mean IC50 ± SD from four separate experiments, read-out: A2780 IC5): 0.23 ± 0.09 nM | IC50 ([3]; MTS assay, mean IC50 ± SD from four separate experiments, read-out: HCT116 IC50): 0.4 ± 0.13 nM

C/C(=C\c1csc(C)n1)[C@@H]1C[C@H]2[C@@H](CCC[C@H](C)[C@H](O)[C@@H](C)C(=O)C(C)(C)[C@@H](O)CC(=O)O1)N2CCOC(=O)OCCSSC[C@H](NC(=O)[C@H](CC(=O)O)NC(=O)[C@H](CCCNC(=N)N)NC(=O)[C@H](CC(=O)O)NC(=O)CC[C@H](NC(=O)c1ccc(NCc2cnc3nc(N)[nH]c(=O)c3n2)cc1)C(=O)O)C(=O)O (some centres unmarked) [Compound J]
toxicity at two lower dose levels ([5]; dose levels below MTD): minimal toxicity | antitumor effects compared at the MTDs ([5]; versus ixabepilone): superior antitumor effects than ixabepilone | antitumor activity in FRα(−) M109 parent tumor model [2]: poor activity at all dose levels tested | effect of co-administration of a folate analog on antitumor effects (FRα(+) 98M109 tumors): protect FRα(+) 98M109 tumors from the antitumor effects of compound J | relative affinity (RA) for folate receptor (folate receptor (FR)): 0.77
